This assay relates to colonocytes. As to the kind of experiment: In situ apoptosis (TUNEL assay), apoptotic index. The assay is classed as in vivo, rat. Particulars: pectin intake compared to cellulose intake, ACF/promotion stage, radiation study. On the procedure: Apoptosis was measured by the binding of TdT-mediated UTP-biotin nick end labeling (TUNEL assay) to fragmented pieces of DNA using sections (4 μm) of PFA-fixed, paraffin-embedded tissue. Apoptotic cells with condensed chromatin, apoptotic bodies and intense brown staining were counted in 50 crypt columns for each animal. The apoptotic index is 100 times the mean number of apoptotic cells per crypt column divided by the total number of cells per crypt column. Chang et al., “Predictive value of proliferation, differentiation and apoptosis as intermediate markers for colon tumorigenesis” Carcinogenesis 18:721-730 (1997).
Data were analyzed using ANOVA to determine the effect of diet (FO/P vs. CO/C) on apoptosis, high multiplicity ACF, and proliferative zone (SAS Institute Inc.). Colon tumor incidence was analyzed by Chi square analysis and reported as percentage of rats bearing tumors (SAS Institute Inc.).

This is an account of results in patent US20100272824A1, “COMPOSITIONS AND METHODS FOR PREVENTING AND MONITORING DISEASE” (The Texas A&M University System, priority 2009, published 2010).

For pectin, the apoptosis entry was “induced apoptosis”. For the same substance, for the setting “listed as Pectin”, the apoptosis result was “induced the levels of apoptosis”.
